Measurements taken from patent publication US20190292189A1, “LIM KINASE INHIBITORS” (VIRONGY, LLC, priority 2016, published 2019).
Where two headings read alike, the source gives them in different places.

Columns and labels:
ROCK-I = ROCK-I (Homo sapiens, UniProt Q13464); assay: ROCK-I biochemical counter-screen; conditions: Table 6; read-out: Biochemical Inhibition IC50 (nM) ROCK-I
PC-3 cells [1] = assay: In vitro migration (wound closure) assay in PC-3 cells; format: cell-based; conditions: Homo sapiens, PC-3, 24 h, read-out: inhibition of migration of PC-3 cells
Method: PC3 cells were cultured to confluence at >90% in 6 well culture dishes in 10% FBS RPMI1640 media the day before the assay. Lines were drawn with a marker on the bottom of the dishes. Using a sterile 1 mL pipet tip, the dishes were scratched three separate wounds through the cells moving perpendicular to the line drawn in the step above. The cells were rinsed with PBS twice very gently and added the RPMI1640 media, and the dishes were taken pictures using phase contrast under Leica DMI3000B microscope.

P450 2C9 = P450 2C9 (Homo sapiens, UniProt P11712); assay: P450 inhibition at 10 μM; format: in vitro ADME
Chain of P450 2C9 (P11712 whole entry): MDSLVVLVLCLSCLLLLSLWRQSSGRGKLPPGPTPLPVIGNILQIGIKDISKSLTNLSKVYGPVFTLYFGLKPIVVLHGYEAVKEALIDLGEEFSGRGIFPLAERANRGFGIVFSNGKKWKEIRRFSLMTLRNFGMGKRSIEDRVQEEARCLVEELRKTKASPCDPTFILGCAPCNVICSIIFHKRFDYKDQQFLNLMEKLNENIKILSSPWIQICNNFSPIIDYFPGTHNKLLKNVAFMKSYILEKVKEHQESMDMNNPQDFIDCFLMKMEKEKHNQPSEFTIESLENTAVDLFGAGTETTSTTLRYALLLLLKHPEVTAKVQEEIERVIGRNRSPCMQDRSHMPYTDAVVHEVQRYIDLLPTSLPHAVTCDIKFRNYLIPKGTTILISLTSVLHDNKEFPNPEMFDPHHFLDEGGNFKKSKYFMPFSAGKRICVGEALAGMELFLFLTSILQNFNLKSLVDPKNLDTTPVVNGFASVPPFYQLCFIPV

P450 3A4 = P450 3A4 (Homo sapiens, UniProt P08684); assay: P450 inhibition at 10 μM; format: in vitro ADME
Chain of P450 3A4 (P08684 whole entry): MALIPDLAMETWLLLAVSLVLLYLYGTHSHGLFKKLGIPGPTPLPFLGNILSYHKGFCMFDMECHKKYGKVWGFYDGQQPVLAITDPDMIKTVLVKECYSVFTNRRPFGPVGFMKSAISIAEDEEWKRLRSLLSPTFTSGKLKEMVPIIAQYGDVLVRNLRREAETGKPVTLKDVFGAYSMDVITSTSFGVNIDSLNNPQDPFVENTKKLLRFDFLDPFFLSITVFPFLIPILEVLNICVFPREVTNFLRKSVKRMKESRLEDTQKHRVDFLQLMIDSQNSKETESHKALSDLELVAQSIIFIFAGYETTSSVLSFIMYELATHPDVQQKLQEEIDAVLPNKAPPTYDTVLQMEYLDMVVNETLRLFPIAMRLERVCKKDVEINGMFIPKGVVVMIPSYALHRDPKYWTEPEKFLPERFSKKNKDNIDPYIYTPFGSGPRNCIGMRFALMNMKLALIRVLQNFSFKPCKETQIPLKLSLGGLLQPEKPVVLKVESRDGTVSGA

P450 1A2 = molecular target: T1, P450 1A2 (Homo sapiens, UniProt P05177)
T1 sequence (P05177 1-516): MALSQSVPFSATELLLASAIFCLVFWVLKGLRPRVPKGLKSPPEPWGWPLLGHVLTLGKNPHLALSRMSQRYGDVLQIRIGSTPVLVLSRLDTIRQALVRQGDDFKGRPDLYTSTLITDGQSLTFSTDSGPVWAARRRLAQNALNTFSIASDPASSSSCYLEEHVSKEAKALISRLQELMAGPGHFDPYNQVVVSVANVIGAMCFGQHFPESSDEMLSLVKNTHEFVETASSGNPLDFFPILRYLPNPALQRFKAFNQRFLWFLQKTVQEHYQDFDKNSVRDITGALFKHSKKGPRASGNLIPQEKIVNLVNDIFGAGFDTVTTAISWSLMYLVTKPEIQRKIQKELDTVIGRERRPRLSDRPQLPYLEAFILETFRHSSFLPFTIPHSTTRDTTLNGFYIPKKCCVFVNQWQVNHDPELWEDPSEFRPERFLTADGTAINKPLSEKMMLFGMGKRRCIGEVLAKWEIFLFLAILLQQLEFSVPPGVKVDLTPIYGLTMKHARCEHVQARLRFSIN

[2] = Microsomal stability, rat liver microsomes; format: in vitro ADME
[3] = system: cofilin phosphorylation in A7r5 cells; assay: In-cell Western assay of cofilin phosphorylation in A7r5 cells; format: cell-based
Method: A7r5 (15,000 cells/well) were plated in a clear-bottomed Packard View black 96-well plate in 100 μl of 10% FBS DMEM:F12 medium and were allowed to attach overnight. The next day, the cells were serum starved in 1% FBS DMEM medium for 2 hr and then treated with the compounds for 1 hr. […] Next day, they were washed twice with PBS-0.1% Tween 20 (PBST) washing solution for 5 min each at room temperature on the orbital shaker, followed by one wash with Licor Blocking Buffer containing 0.05% Tween-20 for 5 min on the shaker at RT. The cells were then incubated with secondary antibody goat anti-rabbit IR800 (1:500 dilution) for 1 hr at RT in the dark (covered the plate with foil) in Licor blocking buffer-containing Tween-20. Following this, cells were washed twice with PBST for 5 min each at room temperature and then once with Licor blocking buffer-containing 0.05% Tween-20. The wells were then incubated with ToPro 3 stain (nucleic acid staining), diluted 1:4000 in Licor blocking buffer or Licor blocking buffer with 0.05% Tween-20 for 30 min at room temperature in the dark. Finally the plates were washed twice with PBS and analyzed using the Odyssey LICOR Infrared Scanner.

Limk1 [4] = molecular target: T2, Limk1 (Homo sapiens, UniProt P53667); assay: Limk1 biochemical assay (Reaction Biology, 10-dose IC50); design: His; purchased Reaction Biology Corporation; host or cells: insect cells; conditions: means of ≥2 experiments
Target sequence in this assay (P53667 285-638): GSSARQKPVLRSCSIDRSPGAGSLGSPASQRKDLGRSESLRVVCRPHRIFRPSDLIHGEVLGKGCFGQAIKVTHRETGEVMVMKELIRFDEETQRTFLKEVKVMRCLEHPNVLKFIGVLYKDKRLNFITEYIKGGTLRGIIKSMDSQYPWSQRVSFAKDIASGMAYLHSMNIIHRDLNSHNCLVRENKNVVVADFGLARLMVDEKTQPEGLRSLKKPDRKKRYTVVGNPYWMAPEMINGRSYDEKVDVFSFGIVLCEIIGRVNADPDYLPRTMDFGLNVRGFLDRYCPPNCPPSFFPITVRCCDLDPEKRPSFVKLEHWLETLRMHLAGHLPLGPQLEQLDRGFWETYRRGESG

ROCK-II = ROCK-II (Homo sapiens, UniProt O75116); assay: ROCK-II biochemical counter-screen
Chain of ROCK-II (O75116 whole entry, species assumed): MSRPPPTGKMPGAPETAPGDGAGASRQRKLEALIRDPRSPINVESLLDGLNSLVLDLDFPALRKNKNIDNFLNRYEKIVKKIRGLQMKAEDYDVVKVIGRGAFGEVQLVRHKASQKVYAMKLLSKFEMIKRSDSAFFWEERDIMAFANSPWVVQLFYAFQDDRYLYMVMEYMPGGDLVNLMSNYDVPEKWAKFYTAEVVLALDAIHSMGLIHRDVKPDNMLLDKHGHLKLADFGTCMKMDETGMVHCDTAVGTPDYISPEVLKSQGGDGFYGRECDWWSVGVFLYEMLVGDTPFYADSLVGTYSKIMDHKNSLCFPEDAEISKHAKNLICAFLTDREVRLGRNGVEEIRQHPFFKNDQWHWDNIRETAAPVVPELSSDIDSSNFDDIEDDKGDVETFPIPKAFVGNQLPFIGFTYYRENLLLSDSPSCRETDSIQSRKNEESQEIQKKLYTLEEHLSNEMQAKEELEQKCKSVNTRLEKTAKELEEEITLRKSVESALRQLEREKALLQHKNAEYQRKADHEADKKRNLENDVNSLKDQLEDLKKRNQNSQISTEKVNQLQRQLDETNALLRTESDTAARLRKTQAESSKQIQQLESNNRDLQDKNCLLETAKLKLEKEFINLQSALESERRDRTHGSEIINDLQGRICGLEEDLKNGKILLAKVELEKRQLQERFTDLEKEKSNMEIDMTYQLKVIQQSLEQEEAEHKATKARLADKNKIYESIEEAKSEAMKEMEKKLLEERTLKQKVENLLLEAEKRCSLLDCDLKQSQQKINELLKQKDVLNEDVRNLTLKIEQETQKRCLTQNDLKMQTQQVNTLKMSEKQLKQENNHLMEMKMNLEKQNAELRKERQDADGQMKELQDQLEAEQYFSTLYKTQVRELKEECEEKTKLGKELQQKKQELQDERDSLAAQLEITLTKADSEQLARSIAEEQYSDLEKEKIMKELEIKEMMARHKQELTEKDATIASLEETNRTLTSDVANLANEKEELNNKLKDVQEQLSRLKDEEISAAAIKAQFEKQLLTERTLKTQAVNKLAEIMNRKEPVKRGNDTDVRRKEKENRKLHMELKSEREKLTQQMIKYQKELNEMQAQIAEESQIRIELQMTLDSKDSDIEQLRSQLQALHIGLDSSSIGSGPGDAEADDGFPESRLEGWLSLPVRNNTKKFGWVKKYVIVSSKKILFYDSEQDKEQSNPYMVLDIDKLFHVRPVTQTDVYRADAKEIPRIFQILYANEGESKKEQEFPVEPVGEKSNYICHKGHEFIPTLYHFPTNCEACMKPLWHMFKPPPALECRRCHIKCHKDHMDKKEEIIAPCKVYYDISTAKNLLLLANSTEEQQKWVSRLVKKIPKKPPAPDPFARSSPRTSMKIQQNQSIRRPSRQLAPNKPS

PC-3 cells [5] = assay: In vitro invasion assay in PC-3 cells; format: cell-based; conditions: Homo sapiens, 48 hours, compared to the control
Method: Transwell chambers coated with GFR Matrigel (BD Biosciences) were used for measurement of cell invasion. The matrigel was solidified at 37° C. in a humidified incubator the day before the assay. PC3 cells (1×10^3 cells per well) were grown in serum-free RPMI1640 media in the upper side of the insert. The lower well was filled with RPMI 1640 supplemented with 10% FBS with a Limk inhibitor (1 μM). PC3 cells were incubated at 37° C. in a humidified atmosphere containing 5% CO2 for 48 h. Then transwell membrane was rinsed three times with PBS, and the cells were fixed in 2.5% EM grade glutaraldehyde for 15 min at room temperature (RT) with no shaking. After removing glutaraldehyde by aspirating, the cells were permeabilized with 0.5% Triton X-100 in PBS for 3 min at RT, and they were rinsed three times with PBS. Then, the cells were stained by Gill's hematoxylin No. 1 for 15 min at RT, and they were washed by distilled water for three times. To remove any residual stain, the cells were washed by acid alcohol for 3 minutes and then rinsed by distilled water twice. The cells were exposed with 0.04% NH4OH until a blue color is observed on the membrane and then rinsed by distilled water twice. The membranes were dried overnight, and the stained cells were visualized under Leica DMI3000B microscope.

P450 2D6 = P450 2D6 (Homo sapiens, UniProt P10635); assay: P450 inhibition at 10 μM; format: in vitro ADME
Chain of P450 2D6 (P10635 whole entry): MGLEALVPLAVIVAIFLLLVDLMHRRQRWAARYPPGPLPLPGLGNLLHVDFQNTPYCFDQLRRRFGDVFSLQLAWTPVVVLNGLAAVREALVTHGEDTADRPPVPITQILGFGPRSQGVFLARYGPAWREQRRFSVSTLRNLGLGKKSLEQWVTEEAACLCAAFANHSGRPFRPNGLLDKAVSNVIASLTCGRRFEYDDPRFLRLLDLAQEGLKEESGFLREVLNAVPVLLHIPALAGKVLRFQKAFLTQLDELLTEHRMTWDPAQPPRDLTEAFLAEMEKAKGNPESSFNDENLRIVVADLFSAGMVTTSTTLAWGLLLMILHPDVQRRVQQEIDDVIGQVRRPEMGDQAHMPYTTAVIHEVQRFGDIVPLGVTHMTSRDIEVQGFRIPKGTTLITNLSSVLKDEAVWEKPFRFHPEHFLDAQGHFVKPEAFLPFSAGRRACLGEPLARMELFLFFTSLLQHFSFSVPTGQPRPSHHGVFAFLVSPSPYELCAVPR

[6] = Plasma pharmacokinetics studies on rats; conditions: for Cmax: read-out: Cmax (iv)
Method: In vivo pharmacokinetics (PK) studies were conducted for selected compounds during the whole optimization at various stages in order to identify structural elements that are favorable for in vivo applications, and/or to evaluate the feasibility of optimized Limk inhibitors for animal studies.

[7] = IOP lowering on rat eyes, topical dosing; format: in vivo, Brown Norway rats
[8] = Microsomal stability, human liver microsomes; format: in vitro ADME
JNK3 = JNK3 (Homo sapiens, UniProt P53779); assay: JNK3 biochemical counter-screen; conditions: Table 6; read-out: Biochemical Inhibition IC50 (nM) JNK3
Chain of JNK3 (P53779 whole entry, species assumed): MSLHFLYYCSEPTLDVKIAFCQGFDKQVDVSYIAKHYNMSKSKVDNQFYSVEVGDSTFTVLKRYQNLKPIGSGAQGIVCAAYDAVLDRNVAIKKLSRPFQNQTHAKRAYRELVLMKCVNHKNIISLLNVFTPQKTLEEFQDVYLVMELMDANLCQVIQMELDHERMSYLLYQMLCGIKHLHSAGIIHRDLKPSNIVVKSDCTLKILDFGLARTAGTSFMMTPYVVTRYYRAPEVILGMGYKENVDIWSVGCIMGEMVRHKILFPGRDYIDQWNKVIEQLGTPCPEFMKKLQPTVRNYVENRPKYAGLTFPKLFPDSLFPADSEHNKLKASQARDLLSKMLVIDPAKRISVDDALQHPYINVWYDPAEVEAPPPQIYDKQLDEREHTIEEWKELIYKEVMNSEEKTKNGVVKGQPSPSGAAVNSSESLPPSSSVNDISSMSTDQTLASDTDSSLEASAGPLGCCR

[9] = system: p-cofilin in CEM-SS T cells; assay: Cofilin phosphorylation cell assay in CEM-SS T cell lines; format: cell-based; conditions: Homo sapiens
Method: Cells were lysed in NuPAGE LDS Sample Buffer (Invitrogen) followed by sonication. Samples were heated at 90° C. for 10 minutes, separated by SDS-PAGE, and then transferred onto nitrocellulose membranes (Invitrogen). The membranes were washed in TBST for 3 minutes and then blocked for 30 minutes at room temperature with Starting Block blocking buffer (Pierce). […] The blots were washed three times for 15 minutes and scanned with Odyssey Infrared Imager (Li-cor Biosciences). The same blots were also stripped and reprobed with antibodies against GAPDH (Abcam) as a loading control.

Limk1 [10] = molecular target: T2, Limk1; conditions: reported by a Japanese group; read-out: Limk1 inhibition IC50; cited from earlier work
Target sequence in this assay (P53667 whole entry, species assumed): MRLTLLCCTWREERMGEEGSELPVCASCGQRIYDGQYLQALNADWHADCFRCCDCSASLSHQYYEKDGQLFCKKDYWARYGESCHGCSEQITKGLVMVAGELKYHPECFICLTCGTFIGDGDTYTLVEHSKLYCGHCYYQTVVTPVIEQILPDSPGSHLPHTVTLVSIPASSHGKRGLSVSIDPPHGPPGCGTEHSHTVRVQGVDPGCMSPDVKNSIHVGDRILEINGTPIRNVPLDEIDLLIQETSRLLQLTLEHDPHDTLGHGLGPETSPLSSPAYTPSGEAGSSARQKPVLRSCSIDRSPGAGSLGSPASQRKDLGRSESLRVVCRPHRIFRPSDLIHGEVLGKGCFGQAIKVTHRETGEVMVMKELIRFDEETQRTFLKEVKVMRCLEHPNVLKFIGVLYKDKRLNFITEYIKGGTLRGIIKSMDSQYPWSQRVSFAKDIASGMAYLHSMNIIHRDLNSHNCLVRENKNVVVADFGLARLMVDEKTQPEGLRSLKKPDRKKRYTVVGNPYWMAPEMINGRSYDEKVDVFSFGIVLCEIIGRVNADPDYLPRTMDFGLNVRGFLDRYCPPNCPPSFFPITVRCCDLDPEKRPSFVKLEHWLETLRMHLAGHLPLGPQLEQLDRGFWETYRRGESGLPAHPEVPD

[11] = A7R5, A7r5 cells, read-out: Cofilin Phosphorylation In A7r5 Cells (IC50)
[12] = Table 5, read-out: Biochemical IC50 (nM) Limk1
[13] = Table 5, means of ≥2 experiments, read-out: Biochemical IC50 (nM) ROCK-II

SMILES | P450 % inh. at 10 μM 2C9 (P450 2C9) [%] | P450 % inh. at 10 μM 3A4 (P450 3A4) [%] | P450 % inh. at 10 μM 2D6 (P450 2D6) [%] | AUC (iv) ([6]; rats, iv dosing 1 mg/kg) [µM·h] | Cl (iv) ([6]; rats, iv dosing 1 mg/kg) [mL/min/kg] | Cmax ([6]; rats, iv dosing 1 mg/kg) [µM] | P450 % inh. at 10 μM 1A2 (P450 1A2; 10 μM) [%] | Microsomal Stability t1/2 (min) Rat ([2]; rat liver microsomes) [min] | IC50 [3, 11] [nM] | IC50 (Limk1 [4]; [12]) [nM] | IC50 (ROCK-II; [13]) [nM] | IC50 (ROCK-II; read-out: ROCK-II IC50) [nM] | T1/2 (iv) ([6]; rats, iv dosing 1 mg/kg) [min] | Yd (iv) ([6]; rats, iv dosing 1 mg/kg) [L/kg] | further results
Cc1c[nH]c2ncnc(-c3ccc(NC(=O)N(CCO)c4ccccc4Cl)cc3)c12 [Compound 18f, 1-(2-Chlorophenyl)-1-(2-hydroxyethyl)-3-(4-(5-methyl-7H-pyrrolo[2,3-d]pyrimidin-4-yl)phenyl)urea] | 39 | 37 | 1 | 5.1 | 7.7 | 4.7 | – | – | – | – | – | – | – | – | IC50 (ROCK-I): 4390 nM; inhibition at 0.1 µM (PC-3 cells [1]): 13%; inhibition at 1 µM (PC-3 cells [1]): 76.1%; inhibition at 10 µM (PC-3 cells [1]): 81%; P450 % inh. at 10 μM 1A2 (P450 1A2): −4/39/1/37%; Microsomal Stability t1/2 (min) Rat [2]: 38 min; IC50 ([3]; A7R5, read-out: Cofilin Phosphorylation In A7r5 Cells (IC50, nM)): 420 nM; IC50 (Limk1 [4]; Table 4, read-out: IC50 (nM) Limk1): 58 nM; IC50 (ROCK-II; Table 4, means of ≥2 experiments, read-out: IC50 (nM) ROCK-II): 3340 nM; inhibition at 1 µM (PC-3 cells [5]): 83%; T1/2 (iv) ([6]; rat, in vivo, iv, 1 mg/kg): 90 min; Yd (iv) ([6]; rat, in vivo, iv, 1 mg/kg): 0.7 L/kg; F (%) (po) ([6]; rats, po dosing 2 mg/kg): 21%
Cc1[nH]c2ncnc(-c3ccc(NC(=O)N(CCN(C)C)c4ccc(Cl)cc4)c(F)c3)c2c1C [Compound 18w, 1-(4-Chlorophenyl)-3-(4-(5,6-dimethyl-7H-pyrrolo[2,3-d]pyrimidin-4-yl)-2-fluorophenyl)-1-(2-(dimethylamino)ethyl)urea] | −23 | −9 | 20 | 3.0 | 14.2 | 2.4 | 15 | 23 | 320 | 19 | > 20000 | > 20000 | 198 | 1.5 | maximal IOP decrease of the treated eye ([7]; 20 ul of […], from 1 to 4 hours, baseline 28 mmHg): ~6 mmHg; IOP drop on rat eyes ([7]; topical, dose of 50 μg): > 20%; Microsomal Stability t1/2 (min) Human [8]: 19 min
COCCN(C(=O)Nc1ccc(-c2ncnc3[nH]c(C)c(C)c23)cc1F)c1ccc(Cl)cc1 [Compound 18x, 1-(4-Chlorophenyl)-3-(4-(5,6-dimethyl-7H-pyrrolo[2,3-d]pyrimidin-4-yl)-2-fluorophenyl)-1-(2-methoxyethyl)urea] | 50 | 52 | 15 | 5.1 | 6.9 | 3.5 | 23 | 13 | 250 | 8 | > 20000 | > 20000 | 204 | 1.2 | IC50 (JNK3): > 10000 nM; inhibition at 1 µM [9]: > 50%
COc1c(C=O)c(O)cc2c1C(=O)c1ccccc1C2=O [Damnacanthal] | – | – | – | – | – | – | – | – | – | – | – | – | – | – | IC50 (Limk1 [10]): ~800 nM
